system: Key Broadleaf Weed and Crop Species; assay: Post-Emergent Test II (Table 5); format: in vivo; settings: Abutilon theophrasti, post-emergence, 336 h, ABUTH: velvetleaf (Abutilon theophrasti), application rate 70 (kg ai/ha; footnote: g ai/ha), read-out: Visual Growth Reduction (%) 14 Days After Application ABUTH
Summary of the method: (§1)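 Visual injury ratings (0 = no injury, 100 = complete kill) taken 14 days after treatment, relative to untreated controls. Compounds, in an acetone/DMSO aqueous carrier with crop oil and surfactant, were applied by track sprayer at 187 L/ha, in a twofold dilution series from the top rate, to plants at the first to second true-leaf stage.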

Row | SMILES | pest or weed control at 70 g/ha [%]
1 | COC(=O)c1nc(-c2ccc(I)nc2)c(F)c(N)c1Cl [Compound 54, methyl 4-amino-5-chloro-3-fluoro-6′-Iodo-[2,3′-bipyridine]-6-carboxylate] | 85 to 94

same assay, conditions: Abutilon theophrasti, post-emergence, 336 h, ABUTH: velvetleaf (Abutilon theophrasti), application rate 140 (kg ai/ha; footnote: g ai/ha), read-out: Visual Growth Reduction (%) 14 Days After Application ABUTH

Row | SMILES | pest or weed control at 140 g/ha [%]
2 | COC(=O)c1nc(-c2ccc(I)nc2)c(F)c(N)c1Cl [Compound 54, methyl 4-amino-5-chloro-3-fluoro-6′-Iodo-[2,3′-bipyridine]-6-carboxylate] | 85 to 94

same assay, conditions: Amaranthus retroflexus, post-emergence, 336 h, AMARE: redroot pigweed (Amaranthus retroflexus), application rate 70 (kg ai/ha; footnote: g ai/ha), read-out: Visual Growth Reduction (%) 14 Days After Application AMARE

Row | SMILES | pest or weed control at 70 g/ha [%]
3 | COC(=O)c1nc(-c2ccc(I)nc2)c(F)c(N)c1Cl [Compound 54, methyl 4-amino-5-chloro-3-fluoro-6′-Iodo-[2,3′-bipyridine]-6-carboxylate] | 85 to 94

same assay, conditions: Amaranthus retroflexus, post-emergence, 336 h, AMARE: redroot pigweed (Amaranthus retroflexus), application rate 140 (kg ai/ha; footnote: g ai/ha), read-out: Visual Growth Reduction (%) 14 Days After Application AMARE

Row | SMILES | pest or weed control at 140 g/ha [%]
4 | COC(=O)c1nc(-c2ccc(I)nc2)c(F)c(N)c1Cl [Compound 54, methyl 4-amino-5-chloro-3-fluoro-6′-Iodo-[2,3′-bipyridine]-6-carboxylate] | 85 to 94

same assay, conditions: Brassica napus, post-emergence, 336 h, BRSSS: oilseed rape, canola (Brassica napus), application rate 70 (kg ai/ha; footnote: g ai/ha), read-out: Visual Growth Reduction (%) 14 Days After Application BRSSS

Row | SMILES | pest or weed control at 70 g/ha [%]
5 | COC(=O)c1nc(-c2ccc(I)nc2)c(F)c(N)c1Cl [Compound 54, methyl 4-amino-5-chloro-3-fluoro-6′-Iodo-[2,3′-bipyridine]-6-carboxylate] | 85 to 94

same assay, conditions: Brassica napus, post-emergence, 336 h, BRSSS: oilseed rape, canola (Brassica napus), application rate 140 (kg ai/ha; footnote: g ai/ha), read-out: Visual Growth Reduction (%) 14 Days After Application BRSSS

Row | SMILES | pest or weed control at 140 g/ha [%]
6 | COC(=O)c1nc(-c2ccc(I)nc2)c(F)c(N)c1Cl [Compound 54, methyl 4-amino-5-chloro-3-fluoro-6′-Iodo-[2,3′-bipyridine]-6-carboxylate] | 95 to 100

same assay, conditions: Chenopodium album, post-emergence, 336 h, CHEAL: lambsquarters (Chenopodium album), application rate 70 (kg ai/ha; footnote: g ai/ha), read-out: Visual Growth Reduction (%) 14 Days After Application CHEAL

Row | SMILES | pest or weed control at 70 g/ha [%]
7 | COC(=O)c1nc(-c2ccc(I)nc2)c(F)c(N)c1Cl [Compound 54, methyl 4-amino-5-chloro-3-fluoro-6′-Iodo-[2,3′-bipyridine]-6-carboxylate] | 95 to 100

same assay, conditions: Chenopodium album, post-emergence, 336 h, CHEAL: lambsquarters (Chenopodium album), application rate 140 (kg ai/ha; footnote: g ai/ha), read-out: Visual Growth Reduction (%) 14 Days After Application CHEAL

Row | SMILES | pest or weed control at 140 g/ha [%]
8 | COC(=O)c1nc(-c2ccc(I)nc2)c(F)c(N)c1Cl [Compound 54, methyl 4-amino-5-chloro-3-fluoro-6′-Iodo-[2,3′-bipyridine]-6-carboxylate] | 95 to 100

same assay, conditions: Euphorbia heterophylla, post-emergence, 336 h, EPHHL: wild poinsettia (Euphorbia heterophylla), application rate 70 (kg ai/ha; footnote: g ai/ha), read-out: Visual Growth Reduction (%) 14 Days After Application EPHHL

Row | SMILES | pest or weed control at 70 g/ha [%]
9 | COC(=O)c1nc(-c2ccc(I)nc2)c(F)c(N)c1Cl [Compound 54, methyl 4-amino-5-chloro-3-fluoro-6′-Iodo-[2,3′-bipyridine]-6-carboxylate] | 75 to 84

same assay, conditions: Euphorbia heterophylla, post-emergence, 336 h, EPHHL: wild poinsettia (Euphorbia heterophylla), application rate 140 (kg ai/ha; footnote: g ai/ha), read-out: Visual Growth Reduction (%) 14 Days After Application EPHHL

Row | SMILES | pest or weed control at 140 g/ha [%]
10 | COC(=O)c1nc(-c2ccc(I)nc2)c(F)c(N)c1Cl [Compound 54, methyl 4-amino-5-chloro-3-fluoro-6′-Iodo-[2,3′-bipyridine]-6-carboxylate] | 85 to 94

same assay, conditions: Helianthus annuus, post-emergence, 336 h, HELAN: sunflower (Helianthus annuus), application rate 70 (kg ai/ha; footnote: g ai/ha), read-out: Visual Growth Reduction (%) 14 Days After Application HELAN

Row | SMILES | pest or weed control at 70 g/ha [%]
11 | COC(=O)c1nc(-c2ccc(I)nc2)c(F)c(N)c1Cl [Compound 54, methyl 4-amino-5-chloro-3-fluoro-6′-Iodo-[2,3′-bipyridine]-6-carboxylate] | 85 to 94

same assay, conditions: Helianthus annuus, post-emergence, 336 h, HELAN: sunflower (Helianthus annuus), application rate 140 (kg ai/ha; footnote: g ai/ha), read-out: Visual Growth Reduction (%) 14 Days After Application HELAN

Row | SMILES | pest or weed control at 140 g/ha [%]
12 | COC(=O)c1nc(-c2ccc(I)nc2)c(F)c(N)c1Cl [Compound 54, methyl 4-amino-5-chloro-3-fluoro-6′-Iodo-[2,3′-bipyridine]-6-carboxylate] | 95 to 100

same assay, conditions: Viola tricolor, post-emergence, 336 h, VIOTR: wild pansy (Viola tricolor), application rate 70 (kg ai/ha; footnote: g ai/ha), read-out: Visual Growth Reduction (%) 14 Days After Application VIOTR

Row | SMILES | pest or weed control at 70 g/ha [%]
13 | COC(=O)c1nc(-c2ccc(I)nc2)c(F)c(N)c1Cl [Compound 54, methyl 4-amino-5-chloro-3-fluoro-6′-Iodo-[2,3′-bipyridine]-6-carboxylate] | 75 to 84

same assay, conditions: Viola tricolor, post-emergence, 336 h, VIOTR: wild pansy (Viola tricolor), application rate 140 (kg ai/ha; footnote: g ai/ha), read-out: Visual Growth Reduction (%) 14 Days After Application VIOTR

Row | SMILES | pest or weed control at 140 g/ha [%]
14 | COC(=O)c1nc(-c2ccc(I)nc2)c(F)c(N)c1Cl [Compound 54, methyl 4-amino-5-chloro-3-fluoro-6′-Iodo-[2,3′-bipyridine]-6-carboxylate] | 85 to 94

system: Key Grass and Sedge Weeds as well as Grass Crops; assay: Post-Emergent Test II (Table 6); format: in vivo; settings: post-emergence, 336 h, CYPSS, 70 g ai/ha, 14 days after application, read-out: Visual Growth Reduction (%) 14 Days After Application CYPSS
Summary of the method: as §1

Row | SMILES | pest or weed control at 70 g/ha [%]
15 | COC(=O)c1nc(-c2ccc(I)nc2)c(F)c(N)c1Cl [Compound 54, methyl 4-amino-5-chloro-3-fluoro-6′-Iodo-[2,3′-bipyridine]-6-carboxylate] | 75 to 84

same assay, conditions: post-emergence, 336 h, CYPSS, 140 g ai/ha, 14 days after application, read-out: Visual Growth Reduction (%) 14 Days After Application CYPSS

Row | SMILES | pest or weed control at 140 g/ha [%]
16 | COC(=O)c1nc(-c2ccc(I)nc2)c(F)c(N)c1Cl [Compound 54, methyl 4-amino-5-chloro-3-fluoro-6′-Iodo-[2,3′-bipyridine]-6-carboxylate] | 85 to 94

same assay, conditions: post-emergence, 336 h, DIGSA: crabgrass (Digitaria sanguinalis), 70 g ai/ha, 14 days after application, read-out: Visual Growth Reduction (%) 14 Days After Application DIGSA

Row | SMILES | pest or weed control at 70 g/ha [%]
17 | COC(=O)c1nc(-c2ccc(I)nc2)c(F)c(N)c1Cl [Compound 54, methyl 4-amino-5-chloro-3-fluoro-6′-Iodo-[2,3′-bipyridine]-6-carboxylate] | 60 to 74

same assay, conditions: post-emergence, 336 h, DIGSA: crabgrass (Digitaria sanguinalis), 140 g ai/ha, 14 days after application, read-out: Visual Growth Reduction (%) 14 Days After Application DIGSA

Row | SMILES | pest or weed control at 140 g/ha [%]
18 | COC(=O)c1nc(-c2ccc(I)nc2)c(F)c(N)c1Cl [Compound 54, methyl 4-amino-5-chloro-3-fluoro-6′-Iodo-[2,3′-bipyridine]-6-carboxylate] | 75 to 84

same assay, conditions: post-emergence, 336 h, ECHSS, 70 g ai/ha, 14 days after application, read-out: Visual Growth Reduction (%) 14 Days After Application ECHSS

Row | SMILES | pest or weed control at 70 g/ha [%]
19 | COC(=O)c1nc(-c2ccc(I)nc2)c(F)c(N)c1Cl [Compound 54, methyl 4-amino-5-chloro-3-fluoro-6′-Iodo-[2,3′-bipyridine]-6-carboxylate] | 75 to 84

same assay, conditions: post-emergence, 336 h, ECHSS, 140 g ai/ha, 14 days after application, read-out: Visual Growth Reduction (%) 14 Days After Application ECHSS

Row | SMILES | pest or weed control at 140 g/ha [%]
20 | COC(=O)c1nc(-c2ccc(I)nc2)c(F)c(N)c1Cl [Compound 54, methyl 4-amino-5-chloro-3-fluoro-6′-Iodo-[2,3′-bipyridine]-6-carboxylate] | 85 to 94

same assay, conditions: post-emergence, 336 h, ORYSS (crop), 70 g ai/ha, 14 days after application, read-out: Visual Growth Reduction (%) 14 Days After Application ORYSS

Row | SMILES | pest or weed control at 70 g/ha [%]
21 | COC(=O)c1nc(-c2ccc(I)nc2)c(F)c(N)c1Cl [Compound 54, methyl 4-amino-5-chloro-3-fluoro-6′-Iodo-[2,3′-bipyridine]-6-carboxylate] | 0 to 29

same assay, conditions: post-emergence, 336 h, ORYSS (crop), 140 g ai/ha, 14 days after application, read-out: Visual Growth Reduction (%) 14 Days After Application ORYSS

Row | SMILES | pest or weed control at 140 g/ha [%]
22 | COC(=O)c1nc(-c2ccc(I)nc2)c(F)c(N)c1Cl [Compound 54, methyl 4-amino-5-chloro-3-fluoro-6′-Iodo-[2,3′-bipyridine]-6-carboxylate] | 0 to 29

same assay, conditions: post-emergence, 336 h, SETFA: giant foxtail (Setaria faberi), 70 g ai/ha, 14 days after application, read-out: Visual Growth Reduction (%) 14 Days After Application SETFA

Row | SMILES | pest or weed control at 70 g/ha [%]
23 | COC(=O)c1nc(-c2ccc(I)nc2)c(F)c(N)c1Cl [Compound 54, methyl 4-amino-5-chloro-3-fluoro-6′-Iodo-[2,3′-bipyridine]-6-carboxylate] | 60 to 74

same assay, conditions: post-emergence, 336 h, SETFA: giant foxtail (Setaria faberi), 140 g ai/ha, 14 days after application, read-out: Visual Growth Reduction (%) 14 Days After Application SETFA

Row | SMILES | pest or weed control at 140 g/ha [%]
24 | COC(=O)c1nc(-c2ccc(I)nc2)c(F)c(N)c1Cl [Compound 54, methyl 4-amino-5-chloro-3-fluoro-6′-Iodo-[2,3′-bipyridine]-6-carboxylate] | 60 to 74

same assay, conditions: post-emergence, 336 h, SORVU: grain sorghum (Sorghum vulgare), 70 g ai/ha, 14 days after application, read-out: Visual Growth Reduction (%) 14 Days After Application SORVU

Row | SMILES | pest or weed control at 70 g/ha [%]
25 | COC(=O)c1nc(-c2ccc(I)nc2)c(F)c(N)c1Cl [Compound 54, methyl 4-amino-5-chloro-3-fluoro-6′-Iodo-[2,3′-bipyridine]-6-carboxylate] | 45 to 59

same assay, conditions: post-emergence, 336 h, SORVU: grain sorghum (Sorghum vulgare), 140 g ai/ha, 14 days after application, read-out: Visual Growth Reduction (%) 14 Days After Application SORVU

Row | SMILES | pest or weed control at 140 g/ha [%]
26 | COC(=O)c1nc(-c2ccc(I)nc2)c(F)c(N)c1Cl [Compound 54, methyl 4-amino-5-chloro-3-fluoro-6′-Iodo-[2,3′-bipyridine]-6-carboxylate] | 60 to 74

same assay, conditions: post-emergence, 336 h, TRZSS (crop), 70 g ai/ha, 14 days after application, read-out: Visual Growth Reduction (%) 14 Days After Application TRZSS

Row | SMILES | pest or weed control at 70 g/ha [%]
27 | COC(=O)c1nc(-c2ccc(I)nc2)c(F)c(N)c1Cl [Compound 54, methyl 4-amino-5-chloro-3-fluoro-6′-Iodo-[2,3′-bipyridine]-6-carboxylate] | 60 to 74

same assay, conditions: post-emergence, 336 h, TRZSS (crop), 140 g ai/ha, 14 days after application, read-out: Visual Growth Reduction (%) 14 Days After Application TRZSS

Row | SMILES | pest or weed control at 140 g/ha [%]
28 | COC(=O)c1nc(-c2ccc(I)nc2)c(F)c(N)c1Cl [Compound 54, methyl 4-amino-5-chloro-3-fluoro-6′-Iodo-[2,3′-bipyridine]-6-carboxylate] | 75 to 84

same assay, conditions: post-emergence, 336 h, ZEAMX: maize, corn (Zea mays), 70 g ai/ha, 14 days after application, read-out: Visual Growth Reduction (%) 14 Days After Application ZEAMX

Row | SMILES | pest or weed control at 70 g/ha [%]
29 | COC(=O)c1nc(-c2ccc(I)nc2)c(F)c(N)c1Cl [Compound 54, methyl 4-amino-5-chloro-3-fluoro-6′-Iodo-[2,3′-bipyridine]-6-carboxylate] | 45 to 59

same assay, conditions: post-emergence, 336 h, ZEAMX: maize, corn (Zea mays), 140 g ai/ha, 14 days after application, read-out: Visual Growth Reduction (%) 14 Days After Application ZEAMX

Row | SMILES | pest or weed control at 140 g/ha [%]
30 | COC(=O)c1nc(-c2ccc(I)nc2)c(F)c(N)c1Cl [Compound 54, methyl 4-amino-5-chloro-3-fluoro-6′-Iodo-[2,3′-bipyridine]-6-carboxylate] | 60 to 74

From patent US10765114B2, “4-amino-6-(pyridyl and 2-substitutedphenyl)-picolinates and 6-amino-2-(pyridyl and 2-substitutedphenyl)-pyrimidine-4-carboxylates and their use as herbicides” (Dow AgroSciences LLC, priority 2013, dated 2020)
